Experimental data published in patent US20260226029A1, “1-(1-Oxo-1,2-Dihydrophthalazin-6-yl)Cycloalkyl-1-Carboxamide Derivatives as MTA-Cooperative Inhibitors of PRMT5” (BeOne Medicines I GmbH, priority 2023, published 2026).

Assays:
HCT116-mock-RNA-KO = test: Compounds cell killing in HCT116 isogenic pair (CellTiter-Glo, 6 days), mock-KO (MTAP wildtype) cells; format: cell-based; settings: Homo sapiens, HCT-116, 144 h, Cell Titer-Glo, 0-10 μM
Excerpt: (§1) HCT116 cell line (ATCC, CCL-247) was isolated from the colon of an adult with colon cancer. It has a mutation in codon 13 of the ras proto-oncogene and can be used as a positive control for PCR assays of mutation in this codon. HCT116-MTAP-KO was knocked-out-MTAP-gene based HCT116, and a single clone was passed for this assay. HCT116-mock-RNA-KO was knocked-out-mock-gene based HCT116 with MTAP wildtype genotype. The base medium for HCT116 isogenic pair is RPMI 1640, HEPES (Gibco, 22400105). To make the complete growth medium, add the following components to the base medium: fetal bovine serum to a final concentration of 10% (Gibco, 10099-141C). The cell line was grown in a humidified 5% CO2 atmosphere at 37° C. and regularly tested for the presence of mycoplasma with MycoAlert™ PLUS Mycoplasma Detection Kit (Lonza, LT07-710).
(§2) • Seed HCT116-mock-RNA-KO (4E2/well) or HCT116-MTAP-KO (4E2/well) cells into a 96-well plate (Greiner: 655090), 100 µL/well. • Incubate at 37° C., 5% CO2, overnight. • Add 50 μL fresh growth-medium containing serial dilution of compounds for a final compound concentration of 0-10 μM to each well. • Incubate at 37° C., 5% CO2, 6 days. • The cell viability detected by Cell Titer-Glo (Promega, G7573). Add 70 μL of CellTiter-Glo® reagent in each well. • Incubate at room temperature for 10 minutes to stabilize luminescent signal. • Analyze with Microplate Reader (TECAN, SPARK) and fit IC50 using Prism® 9.

HCT116-MTAP-KO = test: Compounds cell killing in HCT116 isogenic pair (CellTiter-Glo, 6 days), MTAP-KO cells; format: cell-based; settings: Homo sapiens, HCT-116, 144 h, Cell Titer-Glo, 0-10 μM
Excerpt: as §1, §2

SMILES: NCc1n[nH]c(=O)c2ccc(C3(C(=O)N(Cc4ccc(-c5c(F)cccc5F)cn4)[C@@H]4CCCc5cccnc54)CC3)cc12 [Example 19A, (R)-1-(4-(aminomethyl)-1-oxo-1,2-dihydrophthalazin-6-yl)-N-((5-(2,6-difluorophenyl)pyridin-2-yl)methyl)-N-(5,6,7,8-tetrahydroquinolin-8-yl)cyclopropane-1-carboxamide]
- IC50 (HCT116-mock-RNA-KO): 2230 nM
- IC50 (HCT116-MTAP-KO): 17 nM
